This is an account of results in article PMC7700175, “(E)-1-(Furan-2-yl)-(substituted phenyl)prop-2-en-1-one Derivatives as Tyrosinase Inhibitors and Melanogenesis Inhibition: An In Vitro and In Silico Study” (Molecules, 2020).

Like-named read-outs stand apart in the source and are kept apart here.

The term IC50 denotes the concentration that gives 50% inhibition.

Assay [1] addresses T1, Mushroom tyrosinase (EC 1.14.18.1) (Agaricus bisporus, UniProt C7FF04).
T1 construct: purchased Sigma-Aldrich
Also on record: method as in PMID 30360412. To be noted: earlier results of the authors, cited from earlier work.

Another assay addresses T2, mushroom tyrosinase (Agaricus bisporus, UniProt C7FF04).
T2 construct: purchased Sigma-Aldrich
Conditions: reported inhibitor type of mushroom tyrosinase; cited from earlier work.

Assay [2] deals with T1, Mushroom tyrosinase (EC 1.14.18.1). Put plainly: Mushroom tyrosinase inhibition assay (L-tyrosine or L-DOPA as substrate). The class given is biochemical. As to the method: In order to evaluate the inhibitory effects of synthesized furan chalcone derivatives on the enzyme activity, tested compounds were subjected to a mushroom tyrosinase inhibition assay with monophenolase (L-tyrosine) or diphenolase (L-3,4-dihydroxyphenyl-alanine; L-DOPA) as the substrates.
Mushroom tyrosinase inhibition was determined following our previously reported methods. All experiments were done in triplicate. […] The measurement was completed in triplicate for each concentration and averaged. The IC50 values were determined by interpolation of the dose-inhibition % curves.

[3] abbreviates: IC50 (μM) b, L-DOPA as substrate (diphenolase), mean ± SEM of triplicate.
[4] abbreviates: L-DOPA as substrate (diphenolase), mean ± SEM of triplicate, read-out: IC50 (μM) b.
[5] abbreviates: L-tyrosine as substrate (monophenolase), mean ± SEM of triplicate, read-out: IC50 (μM) a.

T1 sequence (C7FF04 1-392): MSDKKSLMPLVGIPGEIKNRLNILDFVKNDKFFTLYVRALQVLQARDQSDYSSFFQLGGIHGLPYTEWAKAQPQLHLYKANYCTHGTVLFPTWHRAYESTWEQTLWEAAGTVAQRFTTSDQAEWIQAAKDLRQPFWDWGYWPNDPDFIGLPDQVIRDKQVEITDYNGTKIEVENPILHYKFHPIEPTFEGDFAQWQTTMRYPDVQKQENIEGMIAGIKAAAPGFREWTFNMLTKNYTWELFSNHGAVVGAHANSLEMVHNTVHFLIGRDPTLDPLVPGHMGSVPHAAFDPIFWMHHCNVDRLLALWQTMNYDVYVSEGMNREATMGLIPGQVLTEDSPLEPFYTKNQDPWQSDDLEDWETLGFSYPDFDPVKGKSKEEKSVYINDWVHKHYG
T2 sequence (C7FF04 1-392): as above

Take `O=C(/C=C/c1cccs1)c1ccc(O)cc1O` [(E)-2,4-dihydroxyphenyl-(thiophen-2-yl)prop-2-en-1-one]: the results for the IC50 in assay [1] (diphenolase) and in assay [1] (monophenolase) were 0.93 µM and 0.013 µM, respectively.

In the case of `O=C(O)/C=C/c1ccccc1` [Cinnamic acid, reference compound], the inhibition type result on mushroom tyrosinase is given as “mixed-type”. The half-inhibitory concentration (IC50) in assay [2] and in assay [2] (setting [3]) was more than 200 µM throughout.

With `O=C(/C=C/c1ccc(O)cc1)c1ccco1` [Compound 1, (E)-1-(Furan-2-yl)-3-(4-hydroxyphenyl)prop-2-en-1-one], the IC50 in assay [2] (setting [4]) was more than 200 µM; in assay [2] (setting [5]) it was 28.9 ± 1.21 µM.

As to `O=C(/C=C/c1ccc(O)c(O)c1)c1ccco1` [Compound 2, (E)-3-(3,4-Dihydroxyphenyl)-1-(furan-2-yl)prop-2-en-1-one], the IC50 stood at 24.9 ± 3.25 µM in assay [2] (setting [4]) and 84.9 ± 3.79 µM in assay [2] (setting [5]).

For the compound `COc1cc(/C=C/C(=O)c2ccco2)ccc1O` [Compound 3, (E)-1-(Furan-2-yl)-3-(4-hydroxy-3-methoxyphenyl)prop-2-en-1-one], the IC50 in assay [2] (setting [4]) and in assay [2] (setting [5]) was more than 200 µM throughout.

On to `COc1ccc(/C=C/C(=O)c2ccco2)cc1O` [Compound 4, (E)-1-(Furan-2-yl)-3-(3-hydroxy-4-methoxyphenyl)prop-2-en-1-one], for which the IC50 turned out to be 37.4 ± 4.89 µM in assay [2] (setting [4]) and 13.6 ± 3.74 µM in assay [2] (setting [5]).

Take `COc1cc(/C=C/C(=O)c2ccco2)cc(OC)c1O` [Compound 5, (E)-1-(Furan-2-yl)-3-(4-hydroxy-3,5-dimethoxyphenyl)prop-2-en-1-one]: the IC50 in assay [2] (setting [4]) and in assay [2] (setting [5]) was more than 200 µM throughout.

In the case of `O=C(/C=C/c1ccc(O)c(Br)c1)c1ccco1` [Compound 6, (E)-3-(3-Bromo-4-hydroxyphenyl)-1-(furan-2-yl)prop-2-en-1-one], the half-inhibitory concentration (IC50) in assay [2] (setting [4]) was more than 200 µM; in assay [2] (setting [5]), 51.2 ± 3.73 µM.

Consider `O=C(/C=C/c1cc(Br)c(O)c(Br)c1)c1ccco1` [Compound 7, (E)-3-(3,5-Dibromo-4-hydroxyphenyl)-1-(furan-2-yl)prop-2-en-1-one], for which the IC50 in assay [2] (setting [4]) was 27.2 ± 0.38 µM; in assay [2] (setting [5]) it was more than 200 µM.

With `O=C(O)c1ccccc1C(=O)O` [Phthalic acid, reference compound], the inhibition type result on mushroom tyrosinase was “mixed-type”. Further, the IC50 in assay [2] and in assay [2] (setting [3]) was more than 200 µM in each case.
